In this test the target is T1, ΔF508-CFTR (Homo sapiens, UniProt P13569, DEL508-508).
T1 construct: expressed in transfected cells; host or cells: NIH3T3 mouse fibroblasts, stably expressing
Briefly: Membrane potential optical methods for assaying ΔF508-CFTR modulation properties of compounds. The test is classed as cell-based. Conditions: NIH3T3 cells expressing ΔF508-CFTR. From the text: Assays for Detecting and Measuring ΔF508-CFTR Correction Properties of Compounds
Membrane potential optical methods for assaying ΔF508-CFTR modulation properties of compounds
The optical membrane potential assay utilized voltage-sensitive FRET sensors described by Gonzalez and Tsien (See, Gonzalez, J. E. and R. Y. Tsien (1995) “Voltage sensing by fluorescence resonance energy transfer in single cells” Biophys J 69(4): 1272-80, and Gonzalez, J. E. and R. Y. Tsien (1997) “Improved indicators of cell membrane potential that use fluorescence resonance energy transfer” Chem Biol 4(4): 269-77) in combination with instrumentation for measuring fluorescence changes such as the Voltage/Ion Probe Reader (VIPR) (See, Gonzalez, J. E., K. Oades, et al. (1999) “Cell-based assays and instrumentation for screening ion-channel targets” Drug Discov Today 4(9): 431-439).
These voltage sensitive assays are based on the change in fluorescence resonant energy transfer (FRET) between the membrane-soluble, voltage-sensitive dye, DiSBAC2(3), and a fluorescent phospholipid, CC2-DMPE, which is attached to the outer leaflet of the plasma membrane and acts as a FRET donor. Changes in membrane potential (Vm) cause the negatively charged DiSBAC2(3) to redistribute across the plasma membrane and the amount of energy transfer from CC2-DMPE changes accordingly. The changes in fluorescence emission were monitored using VIPR™ II, which is an integrated liquid handler and fluorescent detector designed to conduct cell-based screens in 96- or 384-well microtiter plates.
1. Identification of Correction Compounds
To identify small molecules that correct the trafficking defect associated with EF508-CFTR; a single-addition HTS assay format was developed. The cells were incubated in serum-free medium for 16 hrs at 37° C. in the presence or absence (negative control) of test compound. As a positive control, cells plated in 384-well plates were incubated for 16 hrs at 27° C. to “temperature-correct” ΔF508-CFTR. The cells were subsequently rinsed 3× with Krebs Ringers solution and loaded with the voltage-sensitive dyes. To activate ΔF508-CFTR, 10 μM forskolin and the CFTR potentiator, genistein (20 μM), were added along with Cl^−-free medium to each well. The addition of Cl^−-free medium promoted Cl^−-efflux in response to ΔF508-CFTR activation and the resulting membrane depolarization was optically monitored using the FRET-based voltage-sensor dyes.
2. […]
To identify potentiators of ΔF508-CFTR, a double-addition HTS assay format was developed. […] The extracellular Cl^−-concentration following both additions was 28 mM, which promoted Cl^−-efflux in response to ΔF508-CFTR activation and the resulting membrane depolarization was optically monitored using the FRET-based voltage-sensor dyes. […]

Molecules are shown by their SMILES.

T1 sequence (P13569 with tags, fused parts or gaps DEL508-508): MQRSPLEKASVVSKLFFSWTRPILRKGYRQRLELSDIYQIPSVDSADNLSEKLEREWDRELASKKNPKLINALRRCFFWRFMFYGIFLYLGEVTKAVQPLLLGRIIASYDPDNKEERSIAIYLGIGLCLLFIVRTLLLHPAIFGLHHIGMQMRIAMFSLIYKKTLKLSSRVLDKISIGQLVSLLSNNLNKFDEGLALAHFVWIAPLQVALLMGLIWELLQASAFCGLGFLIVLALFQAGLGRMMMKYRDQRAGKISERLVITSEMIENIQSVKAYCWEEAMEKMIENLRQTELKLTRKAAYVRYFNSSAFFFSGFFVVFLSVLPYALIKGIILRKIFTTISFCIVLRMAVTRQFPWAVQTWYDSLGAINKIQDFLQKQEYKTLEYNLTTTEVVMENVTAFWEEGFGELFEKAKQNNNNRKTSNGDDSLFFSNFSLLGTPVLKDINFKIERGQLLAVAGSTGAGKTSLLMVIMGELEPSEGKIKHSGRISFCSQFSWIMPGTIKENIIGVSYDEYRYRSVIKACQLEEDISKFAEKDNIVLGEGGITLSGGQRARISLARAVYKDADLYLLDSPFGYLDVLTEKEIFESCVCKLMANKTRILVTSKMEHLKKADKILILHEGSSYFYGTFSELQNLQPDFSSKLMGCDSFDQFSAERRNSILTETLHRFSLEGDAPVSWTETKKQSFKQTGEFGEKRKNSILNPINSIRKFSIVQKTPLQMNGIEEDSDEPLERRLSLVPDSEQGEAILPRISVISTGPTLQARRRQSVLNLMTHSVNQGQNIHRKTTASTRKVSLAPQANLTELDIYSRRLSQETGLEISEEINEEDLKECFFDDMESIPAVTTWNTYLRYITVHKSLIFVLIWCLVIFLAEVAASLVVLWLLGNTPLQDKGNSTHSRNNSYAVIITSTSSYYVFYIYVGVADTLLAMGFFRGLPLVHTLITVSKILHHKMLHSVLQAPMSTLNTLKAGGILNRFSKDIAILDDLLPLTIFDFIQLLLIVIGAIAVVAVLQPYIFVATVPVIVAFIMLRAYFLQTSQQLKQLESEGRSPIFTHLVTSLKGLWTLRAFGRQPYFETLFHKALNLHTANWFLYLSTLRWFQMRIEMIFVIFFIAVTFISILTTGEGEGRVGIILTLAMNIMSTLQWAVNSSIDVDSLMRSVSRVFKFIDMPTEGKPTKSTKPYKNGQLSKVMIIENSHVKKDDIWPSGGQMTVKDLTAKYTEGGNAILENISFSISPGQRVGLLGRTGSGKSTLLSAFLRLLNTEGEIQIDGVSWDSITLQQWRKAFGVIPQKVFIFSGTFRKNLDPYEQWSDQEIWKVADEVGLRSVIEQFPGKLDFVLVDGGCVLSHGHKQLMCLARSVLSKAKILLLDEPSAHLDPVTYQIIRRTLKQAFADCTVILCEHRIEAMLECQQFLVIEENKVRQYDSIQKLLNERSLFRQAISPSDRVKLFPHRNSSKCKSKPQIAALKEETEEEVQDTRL

Consider `Cc1ccc(NC(=O)C2(c3ccc4c(c3)CCO4)CC2)nc1-c1cccc(C(=O)O)c1` [compound 2], for which the EC50 is at most 2000 nM and the “Percent Efficacy” value was “+++ (100.0% < +++)”.

Turning to `COc1ccc(C2(C(=O)Nc3ccc(C)c(-c4cccc(C(=O)O)c4)n3)CC2)cc1` [compound 1], the EC50 was at most 2000 nM and the “Percent Efficacy” value is reported as “+++ (100.0% < +++)”.

By EC50 is commonly meant the concentration needed to bring the measured effect to its halfway point.

Values taken from patent publication US7754739B2, “Modulators of CFTR” (Vertex Pharmaceuticals Incorporated, priority 2007, dated 2010).
